In patent US9073895B2 (Boehringer Ingelheim International GmbH, priority 2010, dated 2015):
pIC50: −log10 of the molar value.

What was measured:
[1] = tested on: synthesis of LTB4 in human whole blood; experiment: Human whole blood LTB4 production inhibition assay; assay type: cell-based; conditions: heparinized human whole blood, calcimycin 20 μM, plasma LTB4; read-out: HuWB IC50
Procedure, shortened: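 Heparinized human whole blood preincubated with compound 15 min at 37 °C, then stimulated with calcimycin (20 μM final) for 30 min at 37 °C. Plasma LTB4 measured after low-speed centrifugation by antibody-based homogeneous time-resolved fluorescence.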

[2] = target: T1, recombinant human FLAP protein (Homo sapiens, UniProt P20292); experiment: FLAP binding assay (SPA, displacement of [125I]L-691,831); conditions: membranes of sf9 cells expressing human FLAP, [125I]L-691,831 probe; read-out: hFLAP binding IC50
T1 construct: made in house; host or cells: Sf9 insect cells (membrane fraction, 100,000 x g pellet)
T1 sequence (P20292 1-161): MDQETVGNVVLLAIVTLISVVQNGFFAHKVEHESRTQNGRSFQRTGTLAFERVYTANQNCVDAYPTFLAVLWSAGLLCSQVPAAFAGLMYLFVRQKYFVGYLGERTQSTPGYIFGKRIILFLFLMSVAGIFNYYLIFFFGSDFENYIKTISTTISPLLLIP
Procedure, shortened: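 Membranes from sf9 cells expressing human FLAP (5 μg/well) were bound to WGA SPA beads (200 μg/well). Nonspecific binding was defined with 10 μM unlabelled L-691,831.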

| pIC50 [1] | pIC50 [2] | SMILES |
| --- | --- | --- |
| 5.70 | 7.72 | Nc1ncc(-c2ccc(C3(C(=O)Nc4nccs4)CCC3)cc2)cn1 [Example 200, 1-[4-(2-aminopyrimidin-5-yl)phenyl]-N-(1,3-thiazol-2-yl)cyclobutanaecarboxamide] |
| 7.37 | 8.72 | CCOC(=O)c1ccc(NC(=O)C2(c3ccc(-c4cnc(N)nc4)cc3)CCC2)nc1 [Example 237, ethyl 6-[({1-[4-(2-aminopyrimidin-5-yl)phenyl]cyclobutyl}carbonyl)amino]pyridine-3-carboxylate] |
| 6.19 | 7.76 | COc1ccc(-c2ccc(NC(=O)C3(c4ccc(-c5cnc(N)nc5)cc4)CCOCC3)nc2)cn1 [Example 134, 4-[4-(2-aminopyrimidin-5-yl)phenyl]-N-(6'-methoxy-3,3'-bipyridin-6-yl)tetrahydro-2H-pyran-4-carboxamide] |
| 6.72 | 8.84 | Cc1cc(NC(=O)C2(c3ccc(-c4cnc5[nH]ccc5c4)cc3)CCC2)ccn1 [Example 189, N-(2-methylpyridin-4-yl)-1-[4-(1H-pyrrolo[2,3-b]pyridin-5-yl)phenyl]cyclobutanecarboxamide] |
| 5.69 | 6.64 | COc1cncc(-c2ccc(C(C)(C(=O)Nc3ccc(-c4csc(C)n4)cc3)C(C)C)cc2)c1 (stereo not drawn) [Example 112, 2-[4-(5-methoxypyridin-3-yl)phenyl]-2,3-dimethyl-N-[4-(2-methyl-1,3-thiazol-4-yl)phenyl]butanamide] |
| 5.65 | 7.17 | Nc1ncc(-c2ccc(C3(C(=O)Nc4ccc5c(c4)OCCO5)CCOCC3)cc2)cn1 [Example 12, 4-[4-(2-aminopyrimidin-5-yl)phenyl]-N-(2,3-dihydro-1,4-benzodioxin-6-yl)tetrahydro-2H-pyran-4-carboxamide] |
| 5.86 | 7.20 | Nc1ncc(-c2ccc(C3(C(=O)Nc4ccc(-n5ccnc5)cc4)CCOCC3)cc2)cn1 [Example 154, 4-[4-(2-aminopyrimidin-5-yl)phenyl]-N-[4-(1H-imidazol-1-yl)phenyl]tetrahydro-2H-pyran-4-carboxamide] |
| < 5.52 | 6.72 | Nc1ncc(-c2ccc(C3(C(=O)Nc4ccc5c(c4)C(=O)OC5)CCOCC3)cc2)cn1 [Example 71, 4-[4-(2-aminopyrimidin-5-yl)phenyl]-N-(3-oxo-1,3-dihydro-2-benzofuran-5-yl)tetrahydro-2H-pyran-4-carboxamide] |
| 4.97 | 6.59 | Cc1nc(-c2ccc(NC(=O)C(C)(c3ccc(-c4cnn(C)c4)cc3)C(C)C)cc2)cs1 (stereo not drawn) [Example 118, 2,3-dimethyl-2-[4-(1-methyl-1H-pyrazol-4-yl)phenyl]-N-[4-(2-methyl-1,3-thiazol-4-yl)phenyl]butanamide] |
| < 5.52 | 7.66 | Nc1ncc(-c2ccc(C3(C(=O)Nc4cnc5ccccc5c4)CCOCC3)cc2)cn1 [Example 11, 4-[4-(2-aminopyrimidin-5-yl)phenyl]-N-(quinolin-3-yl)tetrahydro-2H-pyran-4-carboxamide] |
| 5.81 | 8.03 | Cc1nc(-c2ccc(NC(=O)C(C)(c3ccc(-c4cnc(N)nc4)cc3)C(C)C)cc2)cs1 (stereo not drawn) [Example 117, 2-[4-(2-aminopyrimidin-5-yl)phenyl]-2,3-dimethyl-N-[4-(2-methyl-1,3-thiazol-4-yl)phenyl]butanamide] |
| 6.45 | 8.85 | COc1cncc(-c2ccc(NC(=O)C(C)(c3ccc(-c4cnc5c(c4)CCN5)cc3)C(C)C)nc2)c1 (stereo not drawn) [Example 165, 2-[4-(2,3-dihydro-1H-pyrolo[2,3-b]pyridin-5-yl)phenyl]-N-(5'-methoxy-3,3'-bipyridin-6-yl)-2,3-dimethylbutanamide] |
| 6.27 | 7.57 | Nc1ncc(-c2ccc(C3(C(=O)Nc4ccc(OCc5ccccc5)c(Cl)c4)CCOCC3)cc2)cn1 [Example 49, 4-[4-(2-aminopyrimidin-5-yl)phenyl]-N-[4-(benzyloxy)-3-chlorophenyl]tetrahydro-2H-pyran-4-carboxamide] |
| 5.65 | 8.05 | COc1ccc(NC(=O)C2(c3ccc(-c4cnc(N)nc4)cc3)CCOCC2)cc1Cl [Example 14, 4-[4-(2-aminopyrimidin-5-yl)phenyl]-N-(3-chloro-4-methoxyphenyl)tetrahydro-2H-pyran-4-carboxamide] |
| 5.98 | 7.49 | Cc1nc(-c2ccc(NC(=O)C3(c4ccc(-c5cnc(N)c(C)n5)cc4)CCOCC3)nc2)cs1 [Example 182, 4-[4-(5-amino-6-methylpyrazin-2-yl)phenyl]-N-[5-(2-methyl-1,3-thiazol-4-yl)pyridin-2-yl]tetrahydro-2H-pyran-4-carboxamide] |
| 4.95 | 7.41 | Nc1ncc(-c2ccc(C3(C(=O)Nc4ccc5ccccc5n4)CCOCC3)cc2)cn1 [Example 142, 4-[4-(2-aminopyrimidin-5-yl)phenyl]-N-(quinolin-2-yl)tetrahydro-2H-pyran-4-carboxamide] |
| 5.91 | 7.54 | N#Cc1ccc(NC(=O)C2(c3ccc(-c4cnc(N)nc4)cc3)CCOCC2)cc1C(F)(F)F [Example 40, 4-[4-(2-aminopyrimidin-5-yl)phenyl]-N-[4-cyano-3-(trifluoromethyl)phenyl] tetrahydro-2H-pyran-4-carboxamide] |
| 6.10 | 8.29 | Cc1ccc(NC(=O)C2(c3ccc(-c4cnc(N)nc4)cc3)CCC2)nc1 [Example 210, 1-[4-(2-aminopyrimidin-5-yl)phenyl]-N-(5-methylpyridin-2-yl)cyclobutanecarboxamide] |
| 5.75 | 7.92 | Nc1ncc(-c2ccc(C3(C(=O)Nc4ccc(Cl)c(F)c4)CCOCC3)cc2)cn1 [Example 66, 4-[4-(2-aminopyrimidin-5-yl)phenyl]-N-(4-chloro-3-fluorophenyl)tetrahydro-2H-pyran-4-carboxamide] |
| 5.68 | 8.03 | Cn1cc(-c2ccc(NC(=O)C3(c4ccc(-c5cnc(N)nc5)cn4)CCC3)nc2)cn1 [Example 109, 1-[5-(2-aminopyrimidin-5-yl)pyridin-2-yl]-N-[5-(1-methyl-1H-pyrazol-4-yl)pyridin-2-yl]cyclobutanecarboxamide] |
| 4.77 | 6.72 | CCCCc1ccc2cc(NC(=O)C(C)(c3ccc(-c4cncc(OC)c4)cc3)C(C)C)ccc2n1 (stereo not drawn) [Example 115, N-(2-butylquinolin-6-yl)-2-[4-(5-methoxypyridin-3-yl)phenyl]-2,3-dimethylbutanamide] |
| < 5.52 | 7.92 | Nc1ncc(-c2ccc(C3(C(=O)Nc4cccc(OC(F)(F)F)c4)CCOCC3)cc2)cn1 [Example 21] |
| 6.48 | 8.52 | COc1ccc(-c2ccc(NC(=O)C(C)(c3ccc(-c4cnc5[nH]ccc5c4)cc3)C(C)C)nc2)cn1 (stereo not drawn) [Example 166, N-(6'-methoxy-3,3'-bipyridin-6-yl)-2,3-dimethyl-2-[4-(1H-pyrolo[2,3-b]pyridin-5-yl)phenyl]butanamide] |
| 6.62 | 8.26 | N#Cc1ccc(NC(=O)C2(c3ccc(-c4cnc(N)nc4)nc3)CCC2)cc1Cl [Example 91, 1-[6-(2-aminopyrimidin-5-yl)pyridin-3-yl]-N-(3-chloro-4-cyanophenyl)cyclobutane-carboxamide] |
